From BindingDB's records for doi:10.1124/jpet.103.052852 (Eli Lilly, 2003)

Experiments:
[1] = molecular target: T1, Oxysterols receptor LXR-alpha (Homo sapiens, UniProt Q13133)
T1 sequence (Q13133 whole entry): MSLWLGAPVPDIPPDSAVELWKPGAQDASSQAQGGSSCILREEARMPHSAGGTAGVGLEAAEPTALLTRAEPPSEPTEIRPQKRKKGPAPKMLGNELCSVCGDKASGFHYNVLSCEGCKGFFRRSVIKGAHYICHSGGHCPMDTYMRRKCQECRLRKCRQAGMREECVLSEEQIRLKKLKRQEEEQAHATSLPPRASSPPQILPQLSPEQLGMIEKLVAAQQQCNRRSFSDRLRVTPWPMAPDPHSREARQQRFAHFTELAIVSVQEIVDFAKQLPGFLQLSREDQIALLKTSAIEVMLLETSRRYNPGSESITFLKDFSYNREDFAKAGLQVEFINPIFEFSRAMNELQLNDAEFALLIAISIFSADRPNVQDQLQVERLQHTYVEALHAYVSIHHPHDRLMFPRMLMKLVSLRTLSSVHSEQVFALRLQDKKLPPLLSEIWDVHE

[2] = molecular target: T2, Oxysterols receptor LXR-beta (Homo sapiens, UniProt P55055)
T2 sequence (P55055 whole entry): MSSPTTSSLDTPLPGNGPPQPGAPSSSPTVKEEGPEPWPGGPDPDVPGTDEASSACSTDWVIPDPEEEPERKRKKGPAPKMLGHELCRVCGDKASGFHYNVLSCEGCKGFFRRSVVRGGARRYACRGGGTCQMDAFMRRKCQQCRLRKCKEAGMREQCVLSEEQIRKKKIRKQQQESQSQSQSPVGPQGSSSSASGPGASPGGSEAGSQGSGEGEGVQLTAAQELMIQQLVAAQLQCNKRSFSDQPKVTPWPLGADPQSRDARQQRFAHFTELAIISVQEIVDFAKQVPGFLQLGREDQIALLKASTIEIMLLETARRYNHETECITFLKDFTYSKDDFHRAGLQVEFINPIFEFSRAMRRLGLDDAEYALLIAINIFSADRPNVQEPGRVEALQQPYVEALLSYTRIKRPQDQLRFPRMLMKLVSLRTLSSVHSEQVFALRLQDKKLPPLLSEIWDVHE

Row | SMILES | Ki [1] [nM] | Ki [2] [nM]
1 | CC(C)CC[C@H](O)[C@@H](C)[C@H]1CC[C@H]2[C@@H]3CC=C4C[C@@H](O)CC[C@]4(C)[C@H]3CC[C@]12C [(1S,2R,5S,10S,11S,14R,15S)-14-[(2S,3S)-3-hydroxy-6-methylheptan-2-yl]-2,15-dimethyltetracyclo[8.7.0.0^{2,7}.0^{11,15}]heptadec-7-en-5-ol] | 250 | 490
2 | CC(C)(O)C1OC2CCC3(C)C(O)(CCC4Cc5c([nH]c6ccccc56)C43C)C2=CC1=O (stereo not drawn) [CAS_57186-25-1] | – | 1100
